Test results: ChEMBL document CHEMBL2203104, “Recent advances in antitubercular natural products” (Eur J Med Chem, 2012)
≈ marks a conversion by molar mass, not a printed value.

What was measured:
Type in all cases: functional
[1] = system: Mycobacterium tuberculosis; experiment: Antimycobacterial activity against Mycobacterium tuberculosis H37Ra
[2] = system: Mycobacterium tuberculosis; experiment: Antimycobacterial activity against Mycobacterium tuberculosis H37Rv ATCC 27294
[3] = system: Mycobacterium tuberculosis; experiment: Antimycobacterial activity against Mycobacterium tuberculosis H37Rv; settings: Mycobacterium tuberculosis, H37Rv; read-out: MIC

## O=C(/C=C/C=C/CC/C=C/c1ccc2c(c1)OCO2)N1CCCC1
[1]
  MIC: 25 µg/mL

## COc1cc2oc(C)cc(=O)c2c(O)c1CC=C(C)C
[1]
  MIC: 50 µg/mL

## CO[C@H]1CC(=O)c2c(O)cccc2[C@H]1O
[1]
  MIC: 12.5 µg/mL

## COc1cc(O)c2c(c1)[C@H](O)[C@@H](OC)CC2=O
[1]
  MIC: 25 µg/mL

## COC1=CC(=O)c2c(cc(OC)c(C(C)C3=C(O)C(=O)c4cc(O)cc(O)c4C3=O)c2O)C1=O (centres undefined)
[1]
  MIC: 6.25 µg/mL

## CCc1c(OC)cc2c(c1O)C(=O)C=C(OC)C2=O
[1]
  MIC: 12.5 µg/mL

## COc1ccc([C@@]23Oc4cc(OC)cc(OC)c4[C@@](O)(C2O)[C@@H](C(=O)NCCCCNC(=O)c2ccccc2)[C@@H]3c2ccccc2)cc1 (some centres undefined)
[1]
  MIC: 25 µg/mL

## CCCC/C=C/C#CC#CC(C)CCCCCCC(=O)O (centres undefined)
[1]
  MIC: 25 µg/mL

## CCCC/C=C/C#CC#CCCCCCCCC(=O)OCC(O)CO (centres undefined)
[1]
  MIC: 25 µg/mL

## COc1c(-c2ccc(O)cc2)oc2c3c(ccc2c1=O)OC(C)(C)[C@H](OC(C)=O)[C@@H]3OC(C)=O
[1]
  MIC: 25 µg/mL

## COc1ccc2c(=O)c3c(oc2c1)-c1cc2c(cc1CO3)OCO2
[1]
  MIC: 6.25 µg/mL

## C=C(C)C(=O)O[C@H]1C[C@@]2(C)OC(=CC2=O)C(=C)[C@H](O)[C@H]2OC(=O)C(=C)[C@@H]21
[1]
  MIC: 3.1 µg/mL

## C=C1C(=O)O[C@H]2[C@H]1[C@@H](OC(=O)/C(C)=C\C)C[C@@]1(C)OC(=CC1=O)C(=C)[C@@H]2O
[1]
  MIC: 3.1 µg/mL

## C=C1C(=O)O[C@@H]2/C=C(\C(=O)O)CC/C=C(\C)CC[C@@H]12
[1]
  MIC: 50 µg/mL

## O=C1CC[C@H](O)c2cc(O)cc(O)c21
[1]
  MIC: 12.5 µg/mL

## COc1cc2c(cc1OC)-c1c3c(cc4c1[C@@H](C2)NCC4)OCO3
[1]
  MIC: 12.5 µg/mL

## CSSc1cccc[n+]1[O-]
[2]
  MIC: 1.25 µg/mL (≈ 7.21 µM)

## COc1ccc2c(=O)c(OC)c(-c3ccccc3)oc2c1 [3,7-DIMETHOXYFLAVONE]
[1]
  MIC: 50 µg/mL

## CCOC(=O)/C=C/c1ccc(OC)cc1 [4-METHOXY ETHYL CINNAMATE]
[1]
  MIC: 485 µM
[3]
  MIC: 242 µM

## O=C1C=C[C@@H]2O[C@H](c3ccccc3)[C@@H](O)[C@@H]2O1 [ALTHOLACTONE]
[1]
  MIC: 6.25 µg/mL

## CC(=O)O[C@@H]1C[C@H]2C(C)(C)C(=O)C=C[C@]2(C)[C@H]2CC[C@]3(C)C(=CC(=O)[C@H]3c3ccoc3)[C@@]21C [AZADIRADIONE]
[1]
  MIC: 6.25 µg/mL

## C=C(C)[C@@H]1CC[C@]2(C(=O)O)CC[C@]3(C)[C@H](CC[C@@H]4[C@@]5(C)CC[C@H](O)C(C)(C)[C@@H]5CC[C@]43C)[C@@H]12 [BETULINIC ACID]
[1]
  MIC: 25 µg/mL

## O=C(/C=C/CCCC/C=C/c1ccc2c(c1)OCO2)N1CCCC1 [BRACHYAMIDE B]
[1]
  MIC: 50 µg/mL

## CC(C)CNC(=O)/C=C/C=C/CCCCCCCC/C=C/c1ccc2c(c1)OCO2 [BRACHYSTAMIDE B]
[1]
  MIC: 50 µg/mL

## C=C1C(=O)O[C@@H]2/C=C(/CO)C3=CC(=O)[C@@](C)(C[C@H](OC(=O)/C(C)=C\C)[C@@H]12)O3 [CENTRATHERIN]
[1]
  MIC: 3.1 µg/mL

## C/C=C(\C)C(=O)C1=C2C3=COC(/C=C/[C@@H](C)CC)=CC3=C(Cl)C(=O)[C@@]2(C)OC1=O [CHAETOVIRIDIN E]
[1]
  MIC: 50 µg/mL

## O=Cc1cc2c(cc1O)[nH]c1cc(O)ccc12 [CLAUSINE O]
[1]
  MIC: 25 µg/mL

## COc1ccc(C/C=C/c2ccc(O)cc2)c(OC)c1O [DALPARVINENE]
[1]
  MIC: 50 µg/mL

## COc1cc(OC)c(-c2coc3cc(O)cc(O)c3c2=O)cc1O [DALPARVONE]
[1]
  MIC: 50 µg/mL

## COc1ccc2c(=O)c(OC)c(-c3ccc4c(c3)OCO4)oc2c1 [DEMETHOXYKANUGIN]
[1]
  MIC: 50 µg/mL

## CSC1=C(CCNC(C)=O)c2nc3ccccc3c3ccnc(c23)C1=O [DIPLAMINE]
[3]
  MIC: 17 µM

## CCCCCCCCCCCC(=O)c1c(O)cc(O)cc1O [DODECANOYLPHLOROGLUCINOL]
[1]
  MIC: 50 µg/mL

## C=C(C)/C=C/[C@@]12C(=O)C=CC(=O)[C@@]13CC(C)=C[C@@H]2c1cc(O)ccc1O3 [EHRETIQUINONE]
[3]
  MIC: 25 µg/mL

## O=C1C2=C(C(=O)c3c(O)cccc31)[C@]1(O)C[C@H]2C(=O)c2c(O)cccc21 [ENGELHARQUINONE]
[3]
  MIC: 20 µg/mL

## CC(=O)O[C@@H]1C[C@H]2C(C)(C)C(=O)C=C[C@]2(C)[C@H]2CC[C@@]3(C)[C@H](c4ccoc4)C(=O)[C@H]4O[C@]43[C@@]21C [EPOXYAZADIRADIONE]
[1]
  MIC: 25 µg/mL

## CCc1cc(C(N)=S)ccn1 [ETHIONAMIDE]
[3]
  MIC: 18 µM

## CCOC(=O)CCCCCCCCCCCC[C@@H]1C=CCC1 [ETHYL CHAULMOOGRATE]
[3]
  MIC: 9.82 µM

## C=C(C)C(=O)O[C@H]1C[C@@]2(C)OC(=CC2=O)/C(CO)=C\[C@H]2OC(=O)C(=C)[C@H]12 [GOIAZENSOLIDE]
[1]
  MIC: 3.1 µg/mL
